The record followed here is article PMC9871250, “Identification of an indole biodegradation gene cluster from Providencia rettgeri and its contribution in selectively biosynthesizing Tyrian purple” (Frontiers in Bioengineering and Biotechnology, 2023).

Each structure is given as a SMILES string.

The assay has as its target T1, GS-D (Providencia rettgeri, UniProt A0ACG1W3V9).
T1 construct: gene KAH49_07450; full length, N-terminal 6xHis, pET28a in E. coli BL21(DE3), Ni-NTA
T1 sequence (A0ACG1W3V9 1-176): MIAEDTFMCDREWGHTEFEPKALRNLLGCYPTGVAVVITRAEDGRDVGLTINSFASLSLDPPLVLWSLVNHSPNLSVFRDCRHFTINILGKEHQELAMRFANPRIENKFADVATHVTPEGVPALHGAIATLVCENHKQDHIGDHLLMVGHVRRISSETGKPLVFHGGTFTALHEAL
As to the kind of experiment: NADH oxidation, absorbance at […] nm. Type of assay: biochemical. As to conditions: pH 8.0, 30 °C, 250 μM NADH, 100 μM FAD.

On to `NC(=O)C1=CN([C@@H]2O[C@H](COP(=O)(O)OP(=O)(O)OC[C@H]3O[C@@H](n4cnc5c(N)ncnc54)[C@H](O)[C@@H]3O)[C@@H](O)[C@H]2O)C=CC1` [NADH], for which the “NADH oxidation, absorbance at 340 nm” value was “oxidation of NADH demonstrated the flavin reductase activity of the GS-D reductase”.
